From US20240294541A1, “COMPOUNDS CONSTITUTING C20-MODIFIED SALINOMYCIN DERIVATIVES, A METHOD FOR OBTAINING THE SAME, A COMPOSITION CONTAINING THE SAME AND A USE OF SAID COMPOUNDS” (FILECLO SPOLKA Z OGRANICZONA ODPOWIEDZIALNOSCIA, priority 2021, published 2024)
pIC50: −log10 of the molar value. Read-outs that look alike come from different tables or passages of the source.

Experiments:
Format in all cases: cell-based
[1] = test system: NCI-H23 (human lung cancer); assay: In vitro cytotoxicity, SRB assay, NCI-H23; details: for pIC50: NCI-H23, 72 h with compound, SRB, n/a = non-active compound, read-out: NCI-H23 IC50; for NCI-H23 SI: selectivity coefficient vs normal BALB/3T3 cells
[2] = test system: PFSK-1 (malignant primitive neuroectodermal tumour); assay: In vitro cytotoxicity, SRB assay, PFSK-1; details: for pIC50: PFSK-1, 72 h with compound, SRB, n/a = non-active compound, read-out: PFSK-1 IC50; for PFSK-1 SI: selectivity coefficient vs normal BALB/3T3 cells
[3] = test system: A2780 (human ovarian cancer); assay: In vitro cytotoxicity, SRB assay, A2780; details: for pIC50: A2780, 72 h with compound, SRB, n/a = non-active compound, read-out: A2780 IC50; for A2780 SI: selectivity coefficient vs normal BALB/3T3 cells
[4] = test system: A2780Cis (cisplatin-resistant human ovarian cancer); assay: In vitro cytotoxicity, SRB assay, A2780Cis; details: for IC50: Homo sapiens, A2780cis, 72 h, read-out: A2780Cis IC50 (nM)
A375 (human melanoma) = assay: In vitro cytotoxicity, SRB assay, A375; details: for pIC50: A-375, 72 h with compound, SRB, n/a = non-active compound, read-out: A375 IC50; for A375 SI: selectivity coefficient vs normal BALB/3T3 cells
Hs294T (human melanoma) = assay: cells; details: for pIC50: Homo sapiens, Hs 294T, 72 h with compound, SRB, n/a = non-active compound, read-out: Hs294T IC50; for Hs294T SI: selectivity coefficient vs normal BALB/3T3 cells
[5] = test system: PLC/PRF/5 (human liver cancer); assay: cells; details: for pIC50: Homo sapiens, PLC-PRF-5, 72 h with compound, SRB, n/a = non-active compound, read-out: PLC/PRF/5 IC50; for PLC/PRF/5 SI: selectivity coefficient vs normal BALB/3T3 cells
[6] = test system: SNU-16 (human gastric cancer); assay: cells; details: for pIC50: Homo sapiens, SNU-16, 72 h with compound, MTT, n/a = non-active compound, read-out: SNU-16 IC50; for SNU-16 SI: selectivity coefficient vs normal BALB/3T3 cells
[7] = test system: KG-1 (human acute myeloid leukaemia); assay: In vitro cytotoxicity, MTT assay, KG-1; details: for pIC50: Homo sapiens, 72 h with compound, MTT, n/a = non-active compound; for KG-1 SI: selectivity coefficient vs normal BALB/3T3 cells
[8] = test system: MIA PaCa-2 (human pancreatic cancer); assay: cells; details: for pIC50: Homo sapiens, MIA PaCa-2, 72 h with compound, SRB, n/a = non-active compound, read-out: MIA PaCa-2 IC50; for MIA PaCa-2 SI: selectivity coefficient vs normal BALB/3T3 cells
[9] = test system: BALB/3T3 (normal mouse fibroblasts); assay: In vitro cytotoxicity, SRB assay, normal BALB/3T3 fibroblasts; details: Mus musculus, BALB/3T3; normal cells; 72 h with compound, SRB; n/a = non-active compound; read-out: BALB/3T3 IC50

| SMILES | pIC50 ([1]; Homo sapiens) | NCI-H23 SI [1] | pIC50 ([2]; Homo sapiens) | PFSK-1 SI [2] | A2780 SI [3] | A2780Cis RI [4] | A2780Cis SI [4] | IC50 [4] | A375 SI (A375 (human melanoma)) | pIC50 (Hs294T (human melanoma)) | Hs294T SI (Hs294T (human melanoma)) | pIC50 [5] | PLC/PRF/5 SI [5] | pIC50 [6] | SNU-16 SI [6] | pIC50 [7] | KG-1 SI [7] | pIC50 [8] | MIA PaCa-2 SI [8] | pIC50 [9] | other results |
| --- | --- | --- | --- | --- | --- | --- | --- | --- | --- | --- | --- | --- | --- | --- | --- | --- | --- | --- | --- | --- | --- |
| CCCCNC(=S)N[C@@H]1C=C[C@]2(O[C@H]([C@@H](CC)C(=O)[C@@H](C)[C@@H](O)[C@H](C)[C@@H]3O[C@@H]([C@@H](CC)C(=O)O)CC[C@@H]3C)[C@@H](C)C[C@H]2C)O[C@@]12CC[C@@](C)([C@H]1CC[C@](O)(CC)[C@H](C)O1)O2 [FLC-00368-1] | 7.74 | 7.1 | 7.73 | 7.0 | 37.1 | 0.8 | 44.2 | 2.97 nM | 1.5 | 6.82 | 0.9 | 7.13 | 1.8 | 7.80 | 8.2 | 7.55 | 4.7 | 7.06 | 1.5 | 6.88 | pIC50 ([3]; Homo sapiens): 8.45; pIC50 (A375 (human melanoma); Homo sapiens): 7.05 |
| CC[C@@H](C(=O)[C@@H](C)[C@@H](O)[C@H](C)[C@@H]1O[C@@H]([C@@H](CC)C(=O)O)CC[C@@H]1C)[C@H]1O[C@]2(C=C[C@@H](NC(=S)NCC(C)C)[C@]3(CC[C@@](C)([C@H]4CC[C@](O)(CC)[C@H](C)O4)O3)O2)[C@H](C)C[C@@H]1C [FLC-00369-1] | 8.22 | 13.8 | 8.23 | 14.1 | 16.2 | 0.4 | 44.8 | 1.84 nM | 1.7 | 6.98 | 0.8 | 7.91 | 6.6 | 7.80 | 5.1 | 7.93 | 7.1 | 7.35 | 1.8 | 7.08 | pIC50 ([3]; Homo sapiens): 8.29; pIC50 (A375 (human melanoma); Homo sapiens): 7.30 |
| CC[C@@H](C(=O)[C@@H](C)[C@@H](O)[C@H](C)[C@@H]1O[C@@H]([C@@H](CC)C(=O)O)CC[C@@H]1C)[C@H]1O[C@]2(C=C[C@@H](NC(=O)Nc3ccc(OC)cc3)[C@]3(CC[C@@](C)([C@H]4CC[C@](O)(CC)[C@H](C)O4)O3)O2)[C@H](C)C[C@@H]1C [FLC-00371-1] | 8.34 | 20.4 | 8.29 | 18.0 | 39.3 | 0.1 | 413.4 | 0.22 nM | 2.1 | 7.17 | 1.4 | 7.89 | 7.2 | 7.83 | 6.2 | 7.66 | 4.2 | 7.50 | 3.0 | 7.03 | pIC50 ([3]; Homo sapiens): 8.63; pIC50 (A375 (human melanoma); Homo sapiens): 7.36 |
| CC[C@@H](C(=O)[C@@H](C)[C@@H](O)[C@H](C)[C@@H]1O[C@@H]([C@@H](CC)C(=O)O)CC[C@@H]1C)[C@H]1O[C@]2(C=C[C@@H](NC(=S)NC3CCCCC3)[C@]3(CC[C@@](C)([C@H]4CC[C@](O)(CC)[C@H](C)O4)O3)O2)[C@H](C)C[C@@H]1C [FLC-00377-1] | 8.24 | 12.9 | 8.11 | 9.4 | 20.6 | 0.4 | 47.2 | 1.56 nM | 1.1 | 7.02 | 0.8 | 7.73 | 3.9 | 7.29 | 1.4 | 7.74 | 4.0 | 7.38 | 1.8 | 7.13 | pIC50 ([3]; Homo sapiens): 8.45; pIC50 (A375 (human melanoma); Homo sapiens): 7.18 |
| CC[C@@H](C(=O)[C@@H](C)[C@@H](O)[C@H](C)[C@@H]1O[C@@H]([C@@H](CC)C(=O)O)CC[C@@H]1C)[C@H]1O[C@]2(C=C[C@@H](NC(=S)Nc3ccc(Cl)cc3)[C@]3(CC[C@@](C)([C@H]4CC[C@](O)(CC)[C@H](C)O4)O3)O2)[C@H](C)C[C@@H]1C [FLC-00378-1] | 8.39 | 2.5 | 8.48 | 3.1 | 18.3 | 0.3 | 57.0 | 0.18 nM | 0.3 | 7.53 | 0.3 | 8.59 | 3.9 | 8.49 | 3.2 | 7.72 | 0.5 | 7.73 | 0.5 | 7.99 | pIC50 ([3]; Homo sapiens): 9.26; pIC50 (A375 (human melanoma); Homo sapiens): 7.44 |
| CC[C@@H](C(=O)[C@@H](C)[C@@H](O)[C@H](C)[C@@H]1O[C@@H]([C@@H](CC)C(=O)O)CC[C@@H]1C)[C@H]1O[C@]2(C=C[C@@H](NC(=S)Nc3ccc(Cl)c(Cl)c3)[C@]3(CC[C@@](C)([C@H]4CC[C@](O)(CC)[C@H](C)O4)O3)O2)[C@H](C)C[C@@H]1C [FLC-00379-1] | – | 11.0 | – | 14.9 | 22.8 | 0.2 | 121.2 | 0.81 nM | 1.4 | 6.97 | 0.9 | 7.66 | 4.5 | 7.75 | 5.5 | 7.41 | 2.5 | 7.28 | 1.9 | 7.01 | IC50 ([1]; Homo sapiens, NCI-H23, 72 h, read-out: NCI-H23 IC50 (nM)): 8.96 nM; IC50 ([2]; Homo sapiens, PFSK-1, 72 h, read-out: PFSK-1 IC50 (nM)): 6.6 nM; IC50 ([3]; Homo sapiens, A2780, 72 h, read-out: A2780 IC50 (nM)): 4.31 nM; IC50 (A375 (human melanoma); Homo sapiens, A-375, 72 h, read-out: A375 IC50 (nM)): 68.1 nM |
